Test results from patent US9426996B2, “Use of benzoxaboroles as volatile antimicrobial agents on meats, plants, or plant parts” (AgroFresh Inc., priority 2013, dated 2016).

How the values were obtained:
Fusarium sambucinum = test: in vivo volatile assay on potato slices; conditions: 10 mg/L, 21° C. for 3 days
Experimental: To test the effect of Compound A (FIG. 1) on vegetables, potato, onion and squash were obtained from a local store, and the surface sterilized with 0.825% sodium hypochlorite (NaOCl). A slice of potato or two leaves of onion were placed in a sterile Petri plate, while whole squash were placed in a sterile 10.8-cup SnapWare airtight container (Model #109842). Each slice of potato was inoculated with 20 μL of a 1×10^5 spores/mL Fusarium sambucinum suspension, while onions were inoculated with 20 μL of a 1×10^6 spores/mL Botrytis cinerea suspension. For inoculation of squash, a small core was removed, and a mycelial plug of Phytophthora capsici was inserted and capped with the core. Compound A was diluted in acetone, and added to a 42.5 mm Whatman #1 filter disk (Cat. No. 1001-042) attached to the inner side of the lid at a rate to achieve a final headspace concentration of 10 mg/L. The acetone was permitted to evaporate for 5 minutes before parafilm sealing the plates or closing the airtight containers. The vegetables were incubated at 21° C. for 3 days, and evaluated for mycelial growth, dry rot, and water-soaked appearance (mm diameter) with results summarized in Table 13.

Botrytis cinerea = test: combination treatment with 1-MCP on white roses; type: in vivo; conditions: three day volatile treatment at 21° C.
Experimental: To evaluate a combination treatment of Compound A with 1-methylcyclopropene (1-MCP), an in vivo experiment is performed on white roses.
Five white roses are placed in an 800 mL jar containing 200 mL of a common commercial flower preservative. Three jars are then placed in a 117 L Rubbermaid storage box (Cat #2244). Two small fans are placed in opposite ends of the container to assist with the distribution of the two volatiles. A 500 parts per billion (ppb) volume per volume (v/v) 1-MCP treatment is applied (AgroFresh, Springhouse, Pa.) for 24 hours at 21° C. After the 1-MCP treatment is completed, the containers are vented, and Compound A powder is applied in a dose dependent manner to achieve a final headspace concentration of 0.2, 0.04, or 0.008 mg/L with a sublimation device (copper tube heated to 200° C. with fan flow at 0.5 L/min), with the end of the tube penetrating through a ½ inch side port in the container that is sealed immediately after the application. The flowers are incubated for three days at 21° C. After treatment, the flowers are evaluated for an additional seven days at 21° C. for disease incidence and severity of the flower petals.

## OB1OCc2cc(F)ccc21 [Compound A]
Fusarium sambucinum
  Dry rot: 0 mm
  Mycelial growth: 0 mm
Botrytis cinerea; 0.008 mg/L
  Incidence (%): 20.0%
  Severity (0-4): 0.2
Botrytis cinerea; 0.04 mg/L
  Incidence (%): 20.0%
  Severity (0-4): 0.03
Botrytis cinerea; 0.2 mg/L
  Incidence (%): 0.0%
  Severity (0-4): 0.0
